Values of other authors in article PMC9091901 (Journal of Pharmaceutical Analysis, 2021).

Conditions: octanol-water partition coefficient; ref DrugBank database

Row | SMILES | log P
1 | O=C(O)c1cccc(C(=O)O)n1 [2,6-pyridinedicarboxylic acid] | −0.44
2 | O=c1cc(O)c2ccccc2o1 [4-hydroxycoumarin] | 1.01
3 | NCC[C@H](O)C(=O)N[C@@H]1C[C@H](N)[C@@H](O[C@H]2O[C@H](CN)[C@@H](O)[C@H](O)[C@H]2O)[C@H](O)[C@H]1O[C@H]1O[C@H](CO)[C@@H](O)[C@H](N)[C@H]1O [Amikacin] | −3.20
4 | CCN(CC)Cc1cc(Nc2ccnc3cc(Cl)ccc23)ccc1O [Amodiaquine] | 3.70
5 | CC(C)(N)Cc1ccc(Cl)cc1 [Chlorphentermine] | 2.60
6 | CCOC(=O)C(C)(C)Oc1ccc(Cl)cc1 [Clofibrate] | 3.30
7 | O=c1[nH]c2ccccc2n1CCCN1CCC(n2c(=O)[nH]c3cc(Cl)ccc32)CC1 [Domperidone] | 3.90
8 | CN1C(=O)NC(=O)C(C)(C2=CCCCC2)C1=O (centres unmarked) [Hexobarbital] | 1.98
9 | CC1Cc2ccccc2N1NC(=O)c1ccc(Cl)c(S(N)(=O)=O)c1 (centres unmarked) [Indapamide] | 2.52
10 | CCOC(=O)C1=C(C)NC(C)=C(C(=O)OC)C1c1cccc([N+](=O)[O-])c1 (centres unmarked) [Nitrendipine] | 2.88
11 | CC(COc1ccccc1)N(CCCl)Cc1ccccc1 (centres unmarked) [Phenoxybenzamine] | 4.70
12 | CCN(CC)CCOC(=O)c1ccc(N)cc1 [Procaine] | 2.14
13 | CC(C)NCC(O)c1ccc(NS(C)(=O)=O)cc1 (centres unmarked) [Sotalol] | −0.40
14 | CC(C)(C)c1cc(O)ccc1O [Tert-butylhydroquinone] | 2.91
